Tests used:
[1] = In vitro cytotoxicity by MTT assay, HEK 293; assay type: cell-based, human; settings: human, HEK 293 cells, read-out: % cytotoxicity (100 − % cell survival) of HEK 293 cell line
In short: (§1)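 After 72 h of compound exposure at 37 °C in 5 % CO2, MTT was added for 4 h and the propanol-solubilised formazan was read at 490 nm. Monolayers (~10,000 cells/well, RPMI-1640 plus 10 % newborn calf serum) had been allowed to form for 24 h beforehand.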

[2] = tested on: BT474 (breast cancer cell line); assay: In vitro cytotoxicity by MTT assay, BT474; assay type: cell-based; settings: Homo sapiens, 72 h, read-out: % cytotoxicity (100 − % cell survival) of BT474 cell line; for cytotoxicity at 0.005 µM: BT-474, 0.005 μM; for cytotoxicity at 0.015 µM: BT-474, 0.015 μM; for cytotoxicity at 0.045 µM: BT-474, 0.045 μM; for cytotoxicity at 0.13 µM: BT-474, 0.13 μM; for cytotoxicity at 0.41 µM: BT-474, 0.41 μM; for cytotoxicity at 1.23 µM: BT-474, 1.23 μM; for cytotoxicity at 3.7 µM: BT-474, 3.7 μM; for cytotoxicity at 11.11 µM: BT-474, 11.11 μM; for cytotoxicity at 33.33 µM: BT-474, 33.33 μM; for cytotoxicity at 100 µM: BT-474, 100 μM
In short: as §1

[3] = In vitro cytotoxicity by MTT assay, NCI-H226; assay type: cell-based; settings: human, NCI-H226 lung cancer cells, 0.015 μM, read-out: % Cytotoxicity (100 − % cell survival) of NCI-H226 cell line
In short: as §1

[4] = tested on: NCI-H226 (lung cancer cell line); assay: In vitro cytotoxicity by MTT assay, NCI-H226; assay type: cell-based; settings: Homo sapiens, 72 h, read-out: % Cytotoxicity (100 − % cell survival) of NCI-H226 cell line; for cytotoxicity at 0.005 µM: NCI-H226, 0.005 μM; for cytotoxicity at 0.045 µM: NCI-H226, 0.045 μM; for cytotoxicity at 0.13 µM: NCI-H226, 0.13 μM; for cytotoxicity at 0.41 µM: NCI-H226, 0.41 μM; for cytotoxicity at 1.23 µM: NCI-H226, 1.23 μM; for cytotoxicity at 3.7 µM: NCI-H226, 3.7 μM; for cytotoxicity at 11.11 µM: NCI-H226, 11.11 μM; for cytotoxicity at 33.33 µM: NCI-H226, 33.33 μM; for cytotoxicity at 100 µM: NCI-H226, 100 μM
In short: as §1

SMILES	cytotoxicity at 72 h, 0.005 µM [1] [%]	cytotoxicity at 72 h, 0.015 µM [1] [%]	cytotoxicity at 72 h, 0.045 µM [1] [%]	cytotoxicity at 72 h, 0.13 µM [1] [%]	cytotoxicity at 72 h, 0.41 µM [1] [%]	cytotoxicity at 72 h, 1.23 µM [1] [%]	cytotoxicity at 72 h, 3.7 µM [1] [%]	cytotoxicity at 72 h, 11.11 µM [1] [%]	cytotoxicity at 72 h, 33.33 µM [1] [%]	cytotoxicity at 72 h, 100 µM [1] [%]	cytotoxicity at 0.005 µM [2] [%]	cytotoxicity at 0.015 µM [2] [%]	cytotoxicity at 0.045 µM [2] [%]	cytotoxicity at 0.13 µM [2] [%]	cytotoxicity at 0.41 µM [2] [%]	cytotoxicity at 1.23 µM [2] [%]	cytotoxicity at 3.7 µM [2] [%]	cytotoxicity at 11.11 µM [2] [%]	cytotoxicity at 33.33 µM [2] [%]	cytotoxicity at 100 µM [2] [%]	also measured
Nc1ccc(S(=O)(=O)Nc2nnc(S(=O)(=O)NC(=O)c3ccccc3O)s2)cc1 [Compound 7d]	18.9	19.9	20.3	22.2	24.1	25.3	26.6	27.2	29	29.6	28.5	29.3	30.6	31.9	33.1	34.4	35.7	36.1	38	38.9	cytotoxicity at 72 h, 0.015 µM [3]: 34.1%; cytotoxicity at 0.005 µM [4]: 33.7%; cytotoxicity at 0.045 µM [4]: 34.6%; cytotoxicity at 0.13 µM [4]: 35.2%; cytotoxicity at 0.41 µM [4]: 35.7%; cytotoxicity at 1.23 µM [4]: 35.4%; cytotoxicity at 3.7 µM [4]: 36%; cytotoxicity at 11.11 µM [4]: 37.9%; cytotoxicity at 33.33 µM [4]: 38.5%; cytotoxicity at 100 µM [4]: 38.9%
Nc1ccc(S(=O)(=O)Nc2nnc(S(=O)(=O)NC(=O)c3ccc([N+](=O)[O-])cc3)s2)cc1 [Compound 7e]	26.9	29	30.2	32.1	34.7	35.5	36.4	38.1	38.8	39.8	43.9	44.2	45.4	46.3	47.1	47.6	48.5	49.1	50.4	51.2	cytotoxicity at 72 h, 0.015 µM [3]: 30%; cytotoxicity at 0.005 µM [4]: 29%; cytotoxicity at 0.045 µM [4]: 30.5%; cytotoxicity at 0.13 µM [4]: 31.8%; cytotoxicity at 0.41 µM [4]: 33.5%; cytotoxicity at 1.23 µM [4]: 34.5%; cytotoxicity at 3.7 µM [4]: 34.9%; cytotoxicity at 11.11 µM [4]: 35.5%; cytotoxicity at 33.33 µM [4]: 35.8%; cytotoxicity at 100 µM [4]: 36%
Nc1ccc(S(=O)(=O)Nc2nnc(S(=O)(=O)NC(=O)c3ccc(Cl)cc3)s2)cc1 [Compound 7g]	29.1	31.2	33.3	35.1	35.9	36.5	37.2	38.1	40.3	42.9	27.3	28.4	30	31.3	32.7	33.2	34.7	37.7	38.5	40.1	cytotoxicity at 72 h, 0.015 µM [3]: 32.8%; cytotoxicity at 0.005 µM [4]: 30.7%; cytotoxicity at 0.045 µM [4]: 33.6%; cytotoxicity at 0.13 µM [4]: 35.3%; cytotoxicity at 0.41 µM [4]: 35.7%; cytotoxicity at 1.23 µM [4]: 36.1%; cytotoxicity at 3.7 µM [4]: 36.3%; cytotoxicity at 11.11 µM [4]: 37.1%; cytotoxicity at 33.33 µM [4]: 38.7%; cytotoxicity at 100 µM [4]: 39%
NS(=O)(=O)c1ccc(S(=O)(=O)Nc2cccc3c(Cl)c[nH]c23)cc1 [ISL, indisulam, reference compound]	42.3	46.9	48.6	50.1	51.1	52.2	55.4	57.8	61.2	69.4	42.2	45	46.4	49	50.8	52.9	54.7	62.5	66.1	73.5	cytotoxicity at 72 h, 0.015 µM [3]: 28.4%; cytotoxicity at 0.005 µM [4]: 26.4%; cytotoxicity at 0.045 µM [4]: 30.2%; cytotoxicity at 0.13 µM [4]: 31.1%; cytotoxicity at 0.41 µM [4]: 33%; cytotoxicity at 1.23 µM [4]: 34.1%; cytotoxicity at 3.7 µM [4]: 36.5%; cytotoxicity at 11.11 µM [4]: 38.6%; cytotoxicity at 33.33 µM [4]: 44.7%; cytotoxicity at 100 µM [4]: 59.3%

Source: article PMC3973950, “Synthesis of 5-arylidine amino-1,3,4-thiadiazol-2-[(N-substituted benzyol)]sulphonamides endowed with potent antioxidants and anticancer activity induces growth inhibition in HEK293, BT474 and NCI-H226 cells” (Medicinal Chemistry Research, 2013)
